Source: patent US7947308B2, “Effervescent powders for inhalation” (priority 2005, dated 2011)

Assay: In vitro aerosol deposition, Mark II Andersen Cascade Impactor (MMAD, FPF, GSD)
Type: physicochemical
Conditions: spray-dried carrier particles containing ciprofloxacin; UV assay of impactor plates
From the text: The pulmonary deposition of the empty effervescent carrier particles and the carrier particles containing nanoparticles were investigated in vitro by measuring the Mass Median Aerodynamic Diameter (MMAD) using a Mark II Andersen Cascade Impactor (Thermo Andersen, Smyrna, Ga.) in combination with a new high efficiency inhaler (described in U.S. Patent Application Publication No. 2004/0107963 to Finlay, W. H. & Wang, Z., filed Dec. 2, 2003, entitled “Device and Method for Deagglomeration of Powder for Inhalation”, the contents of which are herein incorporated by reference); Wang, Z., Grgic, B., and Finlay, W. H. (2006) A Dry Powder Inhaler with Reduced Mouth-throat Deposition. […]
The MMAD was calculated by linear interpolation of the cumulative mass distribution to obtain the particle size for which the cumulative mass under this size was 50% (Sham, J.-H., Zhang, Y., Finlay, W. H., Roa, W. H. & Lobenberg, R. (2004) Formulation and characterization of spray-dried powders containing nanoparticles for aerosol delivery to the lung. International Journal of Pharmaceutics. 269: 457-467). […]
Particle size and FPF were determined as noted above in Example 1. The dispersibility and content of ciprofloxacin of the spray-dried powders was determined using a Mark II Andersen impactor. […] The MMAD was calculated by a nonlinear regression fit of a log-normal function to the data. […]

range size of most of the particles (cascade impactor): 4.9+/−1 μm
SMILES: O=C(O)c1cn(C2CC2)c2cc(N3CCNCC3)c(F)cc2c1=O [ciprofloxacin]
